# Reference: the supplement of paper PMC11451515
# How the values were obtained:
# Experiment in all cases: AUC of viability dose-response curve (% viability x log10 dose units); higher = less sensitive
# Conditions in all cases: 48 h
# NOMO1 = tested on: NOMO1
# In short: (§1)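 Leukemia cells adapted to each medium were seeded at 500 or 1000 cells/well in 1536-well plates and dosed with library compounds in DMSO at 11 threefold doses from 47 μM to 0.79 nM for 48 h at 37°C. CellTiter-Glo One luminescence was normalised per plate to DMSO and cell-free wells, then fitted with a four-parameter log-logistic model over log10 doses. Area under the curve was taken from this fit by the trapezoidal rule, with curves above full viability scaled and curves failing quality control removed.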
# P12-Ichikawa = tested on: P12-Ichikawa
# In short: as §1
# SEM cells = tested on: SEM cells
# In short: as §1
# [1] = RPMI 5 mM glucose + 10% dialyzed FBS
Structure (SMILES),AUC of viability dose-response curve (NOMO1; HPLM + 10% dialyzed FBS),AUC of viability dose-response curve (NOMO1; RPMI 5 mM glucose + 10% FBS),AUC of viability dose-response curve (NOMO1; [1]),AUC of viability dose-response curve (P12-Ichikawa; HPLM + 10% dialyzed FBS),AUC of viability dose-response curve (P12-Ichikawa; RPMI 5 mM glucose + 10% FBS),AUC of viability dose-response curve (P12-Ichikawa; [1]),AUC of viability dose-response curve (SEM cells; HPLM + 10% dialyzed FBS),AUC of viability dose-response curve (SEM cells; RPMI 5 mM glucose + 10% FBS),AUC of viability dose-response curve (SEM cells; [1])
C/C(=C\c1csc(C)n1)[C@@H]1C[C@@H]2O[C@@H]2CCC[C@H](C)[C@H](O)[C@@H](C)C(=O)C(C)(C)[C@@H](O)CC(=O)O1,146,93,138,,,,,,
C[N+](C)(C)CC(=O)O.[Cl-],432,398,416,442,446,411,373,374,391
O=C(O)CSCC(=O)NC1CCSC1=O (stereo unspecified),471,476,476,466,469,463,451,456,464
COc1ccc(C(=O)CC(=O)c2ccc(C(C)(C)C)cc2)cc1,449,458,465,471,473,476,,,
CN[C@H]1[C@H](O[C@@H]2[C@H](O[C@@H]3[C@@H](O)[C@@H](O)[C@@H](NC(=N)N)[C@@H](O)[C@H]3NC(=N)N)O[C@H](C)[C@@]2(O)C=O)O[C@@H](CO)[C@@H](O)[C@H]1O,412,456,449,452,450,424,386,432,455
CC(C)(C)Cn1c(N)nc2ccc(-c3[nH]c(C(C)(C)C)nc3-c3ccc(F)cc3)nc21,367,392,405,422,414,401,407,347,412
COc1nccc(-c2c(-c3ccc(F)cc3)ncn2C2CCC(O)CC2)n1 (stereo unspecified),463,458,465,443,465,462,459,320,438
CN1C2=CC(=O)/C(=N/NC(N)=O)C=C2CC1S(=O)(=O)[O-].[Na+] (stereo unspecified),454,462,461,475,472,459,455,449,447
Oc1cc2c(cc1O)C1c3ccc(O)c(O)c3OCC1(O)C2 (stereo unspecified),456,464,459,461,449,469,430,441,447
CCCC1=N[N](C)C2=C1\N=C(/NC2=O)C3=CC(=CC=C3OCC)[S+]([O-])(=O)N4CCN(C)CC4,400,385,403,407,385,381,349,356,364
CO[C@H]1/C=C/O[C@@]2(C)Oc3c(C)c(O)c4c(O)c(c(/C=N\N5CCN(C6CCCC6)CC5)c(O)c4c3C2=O)NC(=O)/C(C)=C\C=C\[C@H](C)[C@H](O)[C@@H](C)[C@@H](O)[C@@H](C)[C@H](OC(C)=O)[C@@H]1C,308,300,304,,,,,,
Cc1ccc(NC(=O)Nc2cc(C(F)(F)F)ccc2F)cc1Nc1ccc2c(c1)NC(=O)/C2=C\c1ccc[nH]1,455,460,449,466,462,454,439,440,428
COc1ccc2c(OCc3nnc4ccc(-c5ccccc5)nn34)ccnc2c1,443,471,466,459,477,428,,,
O=C(O)CCNc1cc(N2CCc3ccccc3CC2)nc(-c2ccccn2)n1,448,456,452,463,454,459,463,434,463
C=CCc1cc(OC)c(O)c(C(=O)NCCO)c1,449,462,446,457,460,466,448,442,454
CC(=O)OCC(=O)[C@@]12OC(C)(C)O[C@@H]1C[C@H]3[C@@H]4C[C@H](F)C/5=C/C(=O)/C=C\[C@]5(C)[C@@]4(F)[C@@H](O)C[C@]23C,474,440,420,393,370,344,,,
O=C(C1CC1)N1CC[C@@H](Cn2c(-c3ccc(-c4ccc5occc5c4)cc3)nc3cnccc32)C1,469,456,468,461,470,469,457,465,462
COc1cccc2c(NCc3ccccc3)nc(-n3c(N)nc4ccccc43)nc12,453,457,455,428,435,439,369,367,379

Structure (SMILES),AUC of viability dose-response curve (NOMO1; HPLM + 10% dialyzed FBS),AUC of viability dose-response curve (NOMO1; RPMI 5 mM glucose + 10% FBS),AUC of viability dose-response curve (NOMO1; [1]),AUC of viability dose-response curve (P12-Ichikawa; HPLM + 10% dialyzed FBS),AUC of viability dose-response curve (P12-Ichikawa; RPMI 5 mM glucose + 10% FBS),AUC of viability dose-response curve (P12-Ichikawa; [1]),AUC of viability dose-response curve (SEM cells; HPLM + 10% dialyzed FBS),AUC of viability dose-response curve (SEM cells; RPMI 5 mM glucose + 10% FBS),AUC of viability dose-response curve (SEM cells; [1])
C[C@H]1[C@H](O)O[C@@H]2O[C@@]3(C)CC[C@H]4[C@H](C)CC[C@@H]1[C@@]24OO3,321,316,341,386,340,333,374,348,324
C=CC(=O)Nc1cccc(Oc2nc(Nc3ccc(N4CCN(C)CC4)cc3OC)ncc2Cl)c1,325,355,362,374,351,365,,,
COc1ccc(CC2c3cc(OC)c(OC)cc3CC[N+]2(C)CCC(=O)OCCCCCOC(=O)CC[N+]2(C)CCc3cc(OC)c(OC)cc3C2Cc2ccc(OC)c(OC)c2)cc1OC (stereo unspecified),406,390,375,439,437,427,412,394,401
COC/1=C/[C@@H]2[C@@H]3CC4=C(C(=C(OC)C=C4)O)[C@]2(CCN3C)CC1=O,476,459,471,473,467,466,472,469,464
FC(F)(F)C1=CC=C2C(SCCCCCO\C3=C\O\C(CN4CCOCC4)=C/C3=O)=CC=NC2=C1,470,477,469,464,457,461,,,
Cc1cc(SCc2sc(-c3ccc(C(F)(F)F)cc3)nc2C)ccc1OCC(=O)O,447,443,463,471,459,458,453,459,457
CCN1\C=C(C(O)=O)/C(=O)C2=C1C=C(N3CCN(C)CC3)C(=C2)F,,,,437,437,426,472,458,450
O=[N+]([O-])c1ccc(Nc2ccccc2-c2ccccc2)c2nonc12,451,432,418,432,432,433,,,
O=[S+]([O-])(O)c1ccc2cc(/N=N/c3cc([S+](=O)([O-])O)c4cccnc4c3O)ccc2c1,455,462,460,462,463,458,,,
C[C@H](NC(=O)Cc1cc(F)cc(F)c1)C(=O)N[C@@H]1C(=O)N(C)c2ccccc2-c2ccccc21,386,417,434,,,,373,309,362
FC1=CC=C(CN2\C=C/C=C(/C(=O)N[C@@H](COC3=CC4=C(NC(=O)N4)C=C3)C5=CC=CC=C5)C2=O)C=C1F,,,,430,365,375,373,409,365
COCCCOc1ccnc(C[S+]([O-])c2nc3ccccc3[nH]2)c1C (stereo unspecified),467,475,460,464,450,449,,,
Cn1cnc(-c2cc3nccc(Oc4ccc(NC(=S)NC(=O)Cc5ccccc5)cc4F)c3s2)c1,393,395,397,391,374,395,,,
CN1CCN(Cc2ccc(NC(=O)Nc3ccc(Oc4cc(NC(=O)C5CC5)ncn4)cc3)cc2C(F)(F)F)CC1,271,278,275,285,289,291,,,
CNC(=O)c1ccc(N2C(=S)N(c3ccc(C#N)c(C(F)(F)F)c3)C(=O)C2(C)C)cc1F,457,472,460,453,456,457,,,
O=C(O)[C@@H](c1ccc(OCc2ccc3ccccc3n2)cc1)C1CCCC1,466,470,454,450,435,458,,,
O=C(NCCCNc1nc(Nc2cccc(NC(=O)N3CCCC3)c2)ncc1I)c1cccs1,375,381,384,407,400,401,,,
NC(=O)c1ccc(-c2nc(-c3ccc4c(c3)OCO4)c(-c3ccccn3)[nH]2)cc1,473,466,472,457,429,452,,,
